Data: ChEMBL document CHEMBL6120963, “Discovery of Novel PROTAC SIRT6 Degraders with Potent Efficacy against Hepatocellular Carcinoma” (J Med Chem, 2024)
The source made the active and inactive calls. The calls are words filed in the database; no cut-off is given here.

What was measured:
[1] = Toxicity in BALB/c nude mouse xenografted with human SK-HEP1 cells assessed as histopathological abnormalities in spleen at 25 mg/kg treated for 28 to 30 days by H and E staining based analysis; format: organism-based; settings: in vivo, time 28-30 day
[2] = Toxicity in BALB/c nude mouse xenografted with human SK-HEP1 cells assessed as pathological damage in lungs at 25 mg/kg treated for 28 to 30 days by H and E staining based analysis; format: organism-based; settings: in vivo, time 28-30 day
SK-HEP1 [3] = assay: Antitumor activity against human SK-HEP1 cells xenografted in BALB/c nude mouse at 25 mg/kg treated for 28 to 30 days relative to control; format: functional; settings: time 28-30 day
[4] = Toxicity in BALB/c nude mouse xenografted with human SK-HEP1 cells assessed as histopathological abnormalities in heart at 25 mg/kg treated for 28 to 30 days by H and E staining based analysis; format: organism-based; settings: in vivo, time 28-30 day
[5] = Toxicity in BALB/c nude mouse xenografted with human SK-HEP1 cells assessed as pathological damage in heart at 25 mg/kg treated for 28 to 30 days by H and E staining based analysis; format: organism-based; settings: in vivo, time 28-30 day
[6] = Toxicity in BALB/c nude mouse xenografted with human SK-HEP1 cells assessed as body weight loss at 25 mg/kg treated for 28 to 30 days; format: organism-based; settings: in vivo, time 28-30 day
[7] = Toxicity in BALB/c nude mouse xenografted with human SK-HEP1 cells assessed as pathological damage in kidney at 25 mg/kg treated for 28 to 30 days by H and E staining based analysis; format: organism-based; settings: in vivo, time 28-30 day
[8] = Toxicity in BALB/c nude mouse xenografted with human SK-HEP1 cells assessed as pathological damage in spleen at 25 mg/kg treated for 28 to 30 days by H and E staining based analysis; format: organism-based; settings: in vivo, time 28-30 day
[9] = Toxicity in BALB/c nude mouse xenografted with human SK-HEP1 cells assessed as histopathological abnormalities in lungs at 25 mg/kg treated for 28 to 30 days by H and E staining based analysis; format: organism-based; settings: in vivo, time 28-30 day
[10] = Toxicity in BALB/c nude mouse xenografted with human SK-HEP1 cells assessed as pathological damage in liver at 25 mg/kg treated for 28 to 30 days by H and E staining based analysis; format: organism-based; settings: in vivo, time 28-30 day
[11] = molecular target: T1, Protein cereblon/NAD-dependent protein deacylase sirtuin-6 (Homo sapiens, UniProt Q8N6T7+Q96SW2); assay: PROTAC activity at CRBN/SIRT6 in human Huh-7 cells assessed as hook effect at 5 uM incubated for 36 hrs by Western blot analysis; format: cell-based
Target sequence in this assay (Q8N6T7 2-355 limits assumed): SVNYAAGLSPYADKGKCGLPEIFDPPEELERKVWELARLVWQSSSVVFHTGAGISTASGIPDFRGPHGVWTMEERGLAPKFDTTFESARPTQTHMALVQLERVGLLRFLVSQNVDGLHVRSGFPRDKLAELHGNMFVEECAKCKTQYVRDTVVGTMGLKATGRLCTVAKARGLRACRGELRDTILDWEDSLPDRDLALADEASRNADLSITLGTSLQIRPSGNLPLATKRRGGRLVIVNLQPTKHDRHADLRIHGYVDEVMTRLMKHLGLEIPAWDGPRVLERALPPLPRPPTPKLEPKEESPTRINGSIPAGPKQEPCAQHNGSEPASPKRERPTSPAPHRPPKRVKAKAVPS
Target sequence in this assay (Q96SW2 whole entry partner): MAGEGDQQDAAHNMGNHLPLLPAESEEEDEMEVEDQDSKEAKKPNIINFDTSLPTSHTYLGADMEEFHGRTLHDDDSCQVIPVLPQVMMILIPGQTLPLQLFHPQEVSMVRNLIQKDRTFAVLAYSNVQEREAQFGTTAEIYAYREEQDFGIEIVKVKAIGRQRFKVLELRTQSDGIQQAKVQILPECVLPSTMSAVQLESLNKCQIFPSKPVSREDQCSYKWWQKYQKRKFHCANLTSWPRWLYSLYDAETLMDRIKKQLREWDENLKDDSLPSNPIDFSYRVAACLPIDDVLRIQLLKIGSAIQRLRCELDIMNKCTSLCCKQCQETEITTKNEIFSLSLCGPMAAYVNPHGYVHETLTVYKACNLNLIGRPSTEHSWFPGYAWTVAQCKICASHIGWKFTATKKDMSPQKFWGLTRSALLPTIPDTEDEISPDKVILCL

[12] = molecular target: T1, Protein cereblon/NAD-dependent protein deacylase sirtuin-6; assay: PROTAC activity at CRBN/SIRT6 in human SK-HEP1 cells assessed as induction of SIRT6 degradation at 0.02 to 5 uM incubated for 36 hrs by Western blot analysis; format: cell-based; settings: dose 0.02-5 µM
Target sequence in this assay (Q8N6T7 2-355 limits assumed): as the sequence (Q8N6T7 2-355 limits assumed) above
Target sequence in this assay (Q96SW2 whole entry partner): as the sequence (Q96SW2 whole entry partner) above

[13] = molecular target: T1, Protein cereblon/NAD-dependent protein deacylase sirtuin-6; assay: PROTAC activity at CRBN/SIRT6 in human Huh-7 cells assessed as induction of SIRT6 degradation incubated for 36 hrs by Western blot analysis; format: cell-based
[14] = molecular target: T1, Protein cereblon/NAD-dependent protein deacylase sirtuin-6; assay: PROTAC activity at CRBN/SIRT6 in human SK-HEP1 cells assessed as induction of SIRT6 degradation at 2 uM incubated for 36 hrs by In-Cell ELISA relative to control; format: cell-based
Target sequence in this assay (Q8N6T7 2-355 limits assumed): as the sequence (Q8N6T7 2-355 limits assumed) above
Target sequence in this assay (Q96SW2 whole entry partner): as the sequence (Q96SW2 whole entry partner) above

[15] = molecular target: T1, Protein cereblon/NAD-dependent protein deacylase sirtuin-6; assay: PROTAC activity at CRBN/SIRT6 in human SK-HEP1 cells assessed as induction of SIRT6 degradation at 2 to 3 uM incubated for 36 hrs by Western blot analysis; format: cell-based; settings: dose 2-3 µM
Target sequence in this assay (Q8N6T7 2-355 limits assumed): as the sequence (Q8N6T7 2-355 limits assumed) above
Target sequence in this assay (Q96SW2 whole entry partner): as the sequence (Q96SW2 whole entry partner) above

[16] = molecular target: T1, Protein cereblon/NAD-dependent protein deacylase sirtuin-6; assay: PROTAC activity at CRBN/SIRT6 in human SK-HEP1 cells assessed as induction of SIRT6 degradation upto 10 uM incubated for 36 hrs by Western blot analysis relative to control; format: cell-based
Target sequence in this assay (Q8N6T7 2-355 limits assumed): as the sequence (Q8N6T7 2-355 limits assumed) above
Target sequence in this assay (Q96SW2 whole entry partner): as the sequence (Q96SW2 whole entry partner) above

[17] = molecular target: T1, Protein cereblon/NAD-dependent protein deacylase sirtuin-6; assay: PROTAC activity at CRBN/SIRT6 in human SK-HEP1 cells assessed as induction of SIRT6 degradation incubated for 36 hrs by Western blot analysis; format: cell-based; settings: for Activity: dose 0.02-5 µM
[18] = molecular target: T1, Protein cereblon/NAD-dependent protein deacylase sirtuin-6; assay: PROTAC activity at CRBN/SIRT6 in human Huh-7 cells assessed as induction of SIRT6 degradation upto 10 uM incubated for 36 hrs by Western blot analysis relative to control; format: cell-based
Target sequence in this assay (Q8N6T7 2-355 limits assumed): as the sequence (Q8N6T7 2-355 limits assumed) above
Target sequence in this assay (Q96SW2 whole entry partner): as the sequence (Q96SW2 whole entry partner) above

SK-HEP1 [19] = assay: Cytotoxicity against human SK-HEP1 cells incubated for 72 hrs by CCK8 assay; format: functional, cell-based; settings: SK-HEP1, 72 h
[20] = molecular target: T1, Protein cereblon/NAD-dependent protein deacylase sirtuin-6; assay: PROTAC activity at CRBN/SIRT6 in human SK-HEP1 cells assessed as induction of SIRT6 degradation at 200 nM incubated for 36 hrs by In-Cell ELISA relative to control; format: cell-based
[21] = molecular target: T1, Protein cereblon/NAD-dependent protein deacylase sirtuin-6; assay: PROTAC activity at CRBN/SIRT6 in human SK-HEP1 cells assessed as hook effect upto 5 uM incubated for 36 hrs by Western blot analysis; format: cell-based
[22] = molecular target: T1, Protein cereblon/NAD-dependent protein deacylase sirtuin-6; assay: PROTAC activity at CRBN/SIRT6 in human SK-HEP1 cells assessed as efficiency of SIRT6 degradation at 2 uM incubated for 36 hrs by Western blot analysis relative to control; format: cell-based
SK-HEP1 [23] = assay: Induction of SIRT6 degradation in human SK-HEP1 cells at 5 uM incubated for 36 hrs by In-Cell ELISA relative to control; format: cell-based
SK-HEP1 [24] = assay: Induction of SIRT6 degradation in human SK-HEP1 cells at 0.5 uM incubated for 36 hrs by In-Cell ELISA relative to control; format: cell-based
[25] = molecular target: NAD-dependent protein deacylase sirtuin-6 (Homo sapiens) (UniProt Q8N6T7); assay: Inhibition of SIRT6 in human SK-HEP1 cells assessed as increase in H3K9Ac level incubated for 36 hrs by Western blot analysis; format: cell-based; settings: dose 1.25-20 µM
NAD-dependent protein deacylase sirtuin-6 (Homo sapiens), sequence (Q8N6T7 whole entry): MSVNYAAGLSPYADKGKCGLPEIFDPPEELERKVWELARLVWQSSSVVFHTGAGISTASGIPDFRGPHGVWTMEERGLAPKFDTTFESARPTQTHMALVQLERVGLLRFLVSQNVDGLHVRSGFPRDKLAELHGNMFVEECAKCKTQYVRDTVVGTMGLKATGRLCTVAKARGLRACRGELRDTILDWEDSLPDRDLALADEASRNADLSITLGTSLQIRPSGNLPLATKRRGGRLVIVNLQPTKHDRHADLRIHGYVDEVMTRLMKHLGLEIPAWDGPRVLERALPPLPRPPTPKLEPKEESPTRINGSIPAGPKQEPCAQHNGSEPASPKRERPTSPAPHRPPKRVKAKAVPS

SMILES	DC50 [13]	Activity [14]	Activity [15]	Emax [16]	DC50 [17]	Emax [18]	Activity [20]	Activity [17]	Activity [21]	Activity [22]	IC50 (SK-HEP1 [19])	also measured
CNC(=O)c1cc(Oc2ccc(NC(=O)Nc3ccc(Cl)c(C(F)(F)F)c3)cc2)ccn1 [SORAFENIB]												Activity [1]: Non-toxic; Activity [2]: Non-toxic; T/C (SK-HEP1 [3]): 35.4%; Activity [4]: Non-toxic; Activity [5]: Non-toxic; Activity [6]: Toxic; Activity [7]: Non-toxic; Activity [8]: Non-toxic; Activity [9]: Non-toxic; Activity [10]: Non-toxic
Nc1cc(N2CCN(CCCC3CCN(c4cc5c(cc4F)C(=O)N(C4CCC(=O)NC4=O)C5=O)CC3)CC2)ccc1[N+](=O)[O-] (configuration not stated)	0.263 µM	94.6%	Active	97.7%	0.0504 µM	81.5%	90.3%				1.64 µM	Activity [11]: Active; Activity [12]: Active; Activity ([13]; dose 0.008-5 µM): Dose-dependent-effect; But Reduced Degradation Efficiency Observed
CN1CCN(c2ccc([N+](=O)[O-])c(N)c2)CC1											4.26 µM	Activity (SK-HEP1 [23]): 4.9%; Activity (SK-HEP1 [24]): 1.8%; inhibition [25]: Dose-dependent-effect

More lines, main results first:

DC50 [13]	Activity [14]	Activity [15]	Emax [16]	DC50 [17]	Emax [18]	Activity [20]	Activity [17]	Activity [21]	Activity [22]	SMILES	IC50 (SK-HEP1 [19])	also measured
0.36 µM	98.2%	Active	96.2%	0.0915 µM	78.5%	11.9%	Dose-dependent-effect	inactive	> 95%	Nc1cc(N2CCN(CC3CCN(c4ccc5c(c4)C(=O)N(C4CCC(=O)NC4=O)C5=O)C3)CC2)ccc1[N+](=O)[O-] (configuration not stated)	2.19 µM	
0.239 µM	93.6%	Active	94.8%	0.106 µM	90.6%	85.9%	Dose-dependent-effect	inactive	> 95%	Nc1cc(N2CCN(CC3CCN(c4ccc5c(c4)C(=O)N(C4CCC(=O)NC4=O)C5=O)CC3)CC2)ccc1[N+](=O)[O-] (configuration not stated)	1.75 µM	
